{
  "source": "ChEMBL document CHEMBL5696443",
  "about": "(Clin Cancer Res, 2016)",
  "key": {"[1]": {"biological_target": "CDK9/cyclin T1 (Homo sapiens) (UniProt O60563+P50750)", "assay": "Inhibition of human CDK9/CyclinT1 at 1 uM using KTFCGTPEYLAPEVRREPRILSEEEQEMFRDFDYIADWC as substrate in presence of [gamma33P]-ATP by HotSpot assay relative to control", "format": "protein-complex assay"}, "Focal adhesion kinase 1": {"biological_target": "Focal adhesion kinase 1 (Homo sapiens, UniProt Q05397)", "assay": "Inhibition of human FAK using poly (Glu, Tyr)4:1 as substrate in presence of [gamma33P]-ATP by HotSpot assay"}, "[2]": {"biological_target": "Tyrosine-protein kinase Yes (Homo sapiens, UniProt P07947)", "sequence (P07947 whole entry)": "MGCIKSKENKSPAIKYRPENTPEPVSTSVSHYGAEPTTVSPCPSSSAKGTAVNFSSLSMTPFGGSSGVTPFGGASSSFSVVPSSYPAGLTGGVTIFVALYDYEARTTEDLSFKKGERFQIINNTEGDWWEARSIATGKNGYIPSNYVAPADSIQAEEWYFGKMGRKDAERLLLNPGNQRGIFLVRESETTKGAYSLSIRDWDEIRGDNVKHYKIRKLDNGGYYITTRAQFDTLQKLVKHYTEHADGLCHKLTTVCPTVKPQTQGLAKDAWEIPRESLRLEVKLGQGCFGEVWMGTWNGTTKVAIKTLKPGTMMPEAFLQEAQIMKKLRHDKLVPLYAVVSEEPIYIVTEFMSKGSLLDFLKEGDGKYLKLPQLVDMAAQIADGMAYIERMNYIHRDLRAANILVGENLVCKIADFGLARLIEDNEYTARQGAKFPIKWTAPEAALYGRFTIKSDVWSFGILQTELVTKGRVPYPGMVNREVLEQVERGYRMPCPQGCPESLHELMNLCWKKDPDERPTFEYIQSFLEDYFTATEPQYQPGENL", "assay": "Inhibition of human YES1 using poly (Glu, Tyr)4:1 as substrate in presence of [gamma33P]-ATP by HotSpot assay"}, "[3]": {"biological_target": "Proto-oncogene tyrosine-protein kinase receptor Ret (Homo sapiens, UniProt P07949, V804M)", "assay": "Inhibition of human RET V804M mutant using RRRRRRRRRRRVYSTDYYRLFNPS as substrate in presence of [gamma33P]-ATP by HotSpot assay"}, "[4]": {"biological_target": "Fibroblast growth factor receptor 3 (Homo sapiens, UniProt P22607)", "assay": "Inhibition of human FGFR3 using poly (Glu, Tyr)4:1 as substrate in presence of [gamma33P]-ATP by HotSpot assay"}, "[5]": {"biological_target": "BDNF/NT-3 growth factors receptor (Homo sapiens, UniProt Q16620)", "assay": "Inhibition of human NTRK2 using poly (Glu, Tyr)4:1 as substrate in presence of [gamma33P]-ATP by HotSpot assay"}, "[6]": {"biological_target": "Cytoplasmic tyrosine-protein kinase BMX (Homo sapiens) (UniProt P51813)", "assay": "Inhibition of human BMX at 1 uM using poly (Glu, Tyr)4:1 as substrate in presence of [gamma33P]-ATP by HotSpot assay relative to control"}, "[7]": {"biological_target": "CDK3/Cyclin E (Homo sapiens) (UniProt P24864+Q00526)", "assay": "Inhibition of human CDK3/CyclinE at 1 uM using RB protein as substrate in presence of [gamma33P]-ATP by HotSpot assay relative to control", "format": "protein-complex assay"}, "[8]": {"biological_target": "Death-associated protein kinase 2 (Homo sapiens) (UniProt Q9UIK4)", "sequence (Q9UIK4 whole entry, looked up)": "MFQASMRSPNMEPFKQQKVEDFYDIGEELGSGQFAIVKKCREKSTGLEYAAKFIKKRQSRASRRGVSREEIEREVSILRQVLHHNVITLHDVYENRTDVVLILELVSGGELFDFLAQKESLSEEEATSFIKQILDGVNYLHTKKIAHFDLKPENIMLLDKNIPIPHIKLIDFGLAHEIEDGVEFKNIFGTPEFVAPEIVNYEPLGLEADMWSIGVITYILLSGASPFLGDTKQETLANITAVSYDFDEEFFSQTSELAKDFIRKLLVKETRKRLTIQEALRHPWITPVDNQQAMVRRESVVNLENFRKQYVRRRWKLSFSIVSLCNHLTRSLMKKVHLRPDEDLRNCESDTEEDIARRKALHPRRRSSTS", "assay": "Inhibition of human DAPK2 at 1 uM using KKLNRTLSFAEPG as substrate in presence of [gamma33P]-ATP by HotSpot assay relative to control"}, "[9]": {"biological_target": "Ephrin type-A receptor 2 (Homo sapiens) (UniProt P29317)", "assay": "Inhibition of human EPHA2 at 1 uM using poly (Glu, Tyr)4:1 as substrate in presence of [gamma33P]-ATP by HotSpot assay relative to control"}, "[10]": {"biological_target": "Ephrin type-A receptor 8 (Homo sapiens) (UniProt P29322)", "assay": "Inhibition of human EPHA8 at 1 uM using poly (Glu, Tyr)4:1 as substrate in presence of [gamma33P]-ATP by HotSpot assay relative to control"}, "[11]": {"biological_target": "Inhibitor of nuclear factor kappa-B kinase subunit beta (Homo sapiens) (UniProt O14920)", "assay": "Inhibition of human IKBKB at 1 uM using KKKKERLLDDRHDSGLDSMKDEE as substrate in presence of [gamma33P]-ATP by HotSpot assay relative to control"}, "[12]": {"biological_target": "Tyrosine-protein kinase JAK3 (Homo sapiens) (UniProt P52333)", "assay": "Inhibition of human JAK3 at 1 uM using MBP as substrate in presence of [gamma33P]-ATP by HotSpot assay relative to control"}, "[13]": {"biological_target": "Mitogen-activated protein kinase 3 (Homo sapiens) (UniProt P27361)", "assay": "Inhibition of human MAPK3 at 1 uM using MBP as substrate in presence of [gamma33P]-ATP by HotSpot assay relative to control"}, "[14]": {"biological_target": "Muscle, skeletal receptor tyrosine-protein kinase (Homo sapiens) (UniProt O15146)", "sequence (O15146 whole entry)": "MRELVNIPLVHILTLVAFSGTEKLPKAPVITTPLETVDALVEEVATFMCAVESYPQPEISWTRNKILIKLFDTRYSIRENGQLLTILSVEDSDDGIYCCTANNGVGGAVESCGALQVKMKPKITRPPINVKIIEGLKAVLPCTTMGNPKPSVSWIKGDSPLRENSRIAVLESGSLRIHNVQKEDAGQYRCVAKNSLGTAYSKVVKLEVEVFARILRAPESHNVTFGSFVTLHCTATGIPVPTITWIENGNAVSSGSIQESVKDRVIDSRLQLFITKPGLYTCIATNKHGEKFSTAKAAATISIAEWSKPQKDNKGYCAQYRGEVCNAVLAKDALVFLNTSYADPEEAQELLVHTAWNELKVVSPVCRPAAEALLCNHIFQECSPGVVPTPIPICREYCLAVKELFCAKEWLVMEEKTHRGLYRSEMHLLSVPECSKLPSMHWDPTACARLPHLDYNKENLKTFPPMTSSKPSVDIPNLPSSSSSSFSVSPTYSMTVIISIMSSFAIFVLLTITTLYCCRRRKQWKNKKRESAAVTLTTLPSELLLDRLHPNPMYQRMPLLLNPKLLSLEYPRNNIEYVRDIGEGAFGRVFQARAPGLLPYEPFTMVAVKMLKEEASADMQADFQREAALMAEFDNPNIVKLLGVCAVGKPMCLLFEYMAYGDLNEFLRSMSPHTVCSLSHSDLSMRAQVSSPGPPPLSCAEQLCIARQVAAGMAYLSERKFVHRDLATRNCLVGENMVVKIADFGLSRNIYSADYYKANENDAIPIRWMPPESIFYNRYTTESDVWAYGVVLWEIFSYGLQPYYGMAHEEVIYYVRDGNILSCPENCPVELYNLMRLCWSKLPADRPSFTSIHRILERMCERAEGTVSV", "assay": "Inhibition of human MUSK at 1 uM using MBP as substrate in presence of [gamma33P]-ATP by HotSpot assay relative to control"}, "[15]": {"biological_target": "Mitogen-activated protein kinase 12 (Homo sapiens) (UniProt P53778)", "assay": "Inhibition of human P38gamma at 1 uM using MBP as substrate in presence of [gamma33P]-ATP by HotSpot assay relative to control"}, "[16]": {"biological_target": "Serine/threonine-protein kinase PAK 6 (Homo sapiens) (UniProt Q9NQU5)", "assay": "Inhibition of human PAK6 at 1 uM using RRRLSFAEPG as substrate in presence of [gamma33P]-ATP by HotSpot assay relative to control"}, "[17]": {"biological_target": "Protein kinase C gamma type (Homo sapiens) (UniProt P05129)", "assay": "Inhibition of human PKCG at 1 uM using ERMRPRKRQGSVRRRV as substrate in presence of [gamma33P]-ATP by HotSpot assay relative to control"}, "[18]": {"biological_target": "SRSF protein kinase 1 (Homo sapiens) (UniProt Q96SB4)", "assay": "Inhibition of human SRPK1 at 1 uM using GRSRSRSRSR as substrate in presence of [gamma33P]-ATP by HotSpot assay relative to control"}, "[19]": {"biological_target": "SRSF protein kinase 2 (Homo sapiens) (UniProt P78362)", "assay": "Inhibition of human SRPK2 at 1 uM using GRSRSRSRSR as substrate in presence of [gamma33P]-ATP by HotSpot assay relative to control"}, "[20]": {"biological_target": "Wee1-like protein kinase (Homo sapiens) (UniProt P30291)", "sequence (P30291 whole entry, looked up)": "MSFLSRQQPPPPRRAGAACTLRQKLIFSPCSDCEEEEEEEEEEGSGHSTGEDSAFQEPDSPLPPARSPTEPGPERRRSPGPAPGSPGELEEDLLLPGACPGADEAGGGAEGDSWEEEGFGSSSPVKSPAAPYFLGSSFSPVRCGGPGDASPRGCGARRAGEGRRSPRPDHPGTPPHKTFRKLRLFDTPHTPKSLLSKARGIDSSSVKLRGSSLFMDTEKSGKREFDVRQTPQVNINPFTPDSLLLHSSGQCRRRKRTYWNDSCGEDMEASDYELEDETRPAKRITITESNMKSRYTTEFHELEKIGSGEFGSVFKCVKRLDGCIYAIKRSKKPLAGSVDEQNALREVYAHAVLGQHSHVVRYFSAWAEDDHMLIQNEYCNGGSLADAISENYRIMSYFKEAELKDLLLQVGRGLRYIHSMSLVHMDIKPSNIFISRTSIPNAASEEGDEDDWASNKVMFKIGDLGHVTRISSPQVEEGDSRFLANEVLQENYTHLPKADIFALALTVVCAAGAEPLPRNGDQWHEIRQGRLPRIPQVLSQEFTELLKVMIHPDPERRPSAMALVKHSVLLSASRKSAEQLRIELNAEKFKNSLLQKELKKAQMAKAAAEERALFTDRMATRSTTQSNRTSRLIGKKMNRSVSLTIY", "assay": "Inhibition of human WEE1 at 1 uM using CDK1 (D146N)/cyclin B1 as substrate in presence of [gamma33P]-ATP by HotSpot assay relative to control"}, "NCI-H2228": {"tested_on": "NCI-H2228", "assay": "Antitumor activity against ALK positive human NCI-H2228 cells xenografted in CB-17/SCID orthotopic brain tumor mouse model assessed as median survival time at 25 mg/kg po administered daily and measured after 64 days (reference value: 28 days)", "format": "functional", "settings": "time 64 day"}, "U-937": {"tested_on": "U-937", "settings": "time 72 hrs"}, "[21]": {"tested_on": "Protein cereblon/ALK tyrosine kinase receptor/Echinoderm microtubule-associated protein-like 4 (Homo sapiens), Q9UM73+Q9HC35+Q96SW2 [UNDEFINED MUTATION]", "settings": "BaF3, time 72.0 hrs"}, "[22]": {"tested_on": "EML4-ALK (Homo sapiens), Q9UM73+Q9HC35 [F1174C]", "settings": "BaF3, time 3-5 weeks"}, "[23]": {"tested_on": "EML4-ALK (Homo sapiens), Q9UM73+Q9HC35 [L1196M]", "settings": "BaF3, time 3-5 weeks"}, "[24]": {"tested_on": "EML4-ALK (Homo sapiens), Q9UM73+Q9HC35 [UNDEFINED MUTATION]", "sequence (Q9HC35 whole entry, looked up, change not shown)": "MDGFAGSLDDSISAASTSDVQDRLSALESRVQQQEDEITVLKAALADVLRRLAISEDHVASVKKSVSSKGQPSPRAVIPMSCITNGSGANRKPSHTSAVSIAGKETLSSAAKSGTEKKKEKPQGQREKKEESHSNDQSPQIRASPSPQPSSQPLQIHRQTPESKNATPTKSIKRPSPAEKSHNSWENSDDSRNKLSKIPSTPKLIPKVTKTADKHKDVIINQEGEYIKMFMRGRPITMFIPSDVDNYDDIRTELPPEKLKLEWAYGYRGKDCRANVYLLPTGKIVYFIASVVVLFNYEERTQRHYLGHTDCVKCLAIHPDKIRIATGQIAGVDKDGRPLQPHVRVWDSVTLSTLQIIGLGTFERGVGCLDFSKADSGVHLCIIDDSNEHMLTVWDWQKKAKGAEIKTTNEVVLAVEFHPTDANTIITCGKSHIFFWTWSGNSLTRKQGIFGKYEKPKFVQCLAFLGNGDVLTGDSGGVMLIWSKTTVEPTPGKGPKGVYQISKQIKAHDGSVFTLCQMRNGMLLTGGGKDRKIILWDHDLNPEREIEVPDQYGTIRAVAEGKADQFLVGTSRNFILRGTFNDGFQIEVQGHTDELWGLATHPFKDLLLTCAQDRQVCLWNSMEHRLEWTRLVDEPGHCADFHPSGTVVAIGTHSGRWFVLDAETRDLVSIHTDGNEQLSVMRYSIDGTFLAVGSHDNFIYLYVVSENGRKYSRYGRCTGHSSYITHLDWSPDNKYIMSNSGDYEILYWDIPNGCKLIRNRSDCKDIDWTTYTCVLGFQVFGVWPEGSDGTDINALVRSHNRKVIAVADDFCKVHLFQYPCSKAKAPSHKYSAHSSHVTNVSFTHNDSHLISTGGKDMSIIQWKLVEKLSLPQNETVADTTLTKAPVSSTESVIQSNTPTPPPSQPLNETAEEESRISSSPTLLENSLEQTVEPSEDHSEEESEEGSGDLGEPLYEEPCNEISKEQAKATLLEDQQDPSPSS", "sequence (Q9UM73 whole entry, looked up, change not shown)": "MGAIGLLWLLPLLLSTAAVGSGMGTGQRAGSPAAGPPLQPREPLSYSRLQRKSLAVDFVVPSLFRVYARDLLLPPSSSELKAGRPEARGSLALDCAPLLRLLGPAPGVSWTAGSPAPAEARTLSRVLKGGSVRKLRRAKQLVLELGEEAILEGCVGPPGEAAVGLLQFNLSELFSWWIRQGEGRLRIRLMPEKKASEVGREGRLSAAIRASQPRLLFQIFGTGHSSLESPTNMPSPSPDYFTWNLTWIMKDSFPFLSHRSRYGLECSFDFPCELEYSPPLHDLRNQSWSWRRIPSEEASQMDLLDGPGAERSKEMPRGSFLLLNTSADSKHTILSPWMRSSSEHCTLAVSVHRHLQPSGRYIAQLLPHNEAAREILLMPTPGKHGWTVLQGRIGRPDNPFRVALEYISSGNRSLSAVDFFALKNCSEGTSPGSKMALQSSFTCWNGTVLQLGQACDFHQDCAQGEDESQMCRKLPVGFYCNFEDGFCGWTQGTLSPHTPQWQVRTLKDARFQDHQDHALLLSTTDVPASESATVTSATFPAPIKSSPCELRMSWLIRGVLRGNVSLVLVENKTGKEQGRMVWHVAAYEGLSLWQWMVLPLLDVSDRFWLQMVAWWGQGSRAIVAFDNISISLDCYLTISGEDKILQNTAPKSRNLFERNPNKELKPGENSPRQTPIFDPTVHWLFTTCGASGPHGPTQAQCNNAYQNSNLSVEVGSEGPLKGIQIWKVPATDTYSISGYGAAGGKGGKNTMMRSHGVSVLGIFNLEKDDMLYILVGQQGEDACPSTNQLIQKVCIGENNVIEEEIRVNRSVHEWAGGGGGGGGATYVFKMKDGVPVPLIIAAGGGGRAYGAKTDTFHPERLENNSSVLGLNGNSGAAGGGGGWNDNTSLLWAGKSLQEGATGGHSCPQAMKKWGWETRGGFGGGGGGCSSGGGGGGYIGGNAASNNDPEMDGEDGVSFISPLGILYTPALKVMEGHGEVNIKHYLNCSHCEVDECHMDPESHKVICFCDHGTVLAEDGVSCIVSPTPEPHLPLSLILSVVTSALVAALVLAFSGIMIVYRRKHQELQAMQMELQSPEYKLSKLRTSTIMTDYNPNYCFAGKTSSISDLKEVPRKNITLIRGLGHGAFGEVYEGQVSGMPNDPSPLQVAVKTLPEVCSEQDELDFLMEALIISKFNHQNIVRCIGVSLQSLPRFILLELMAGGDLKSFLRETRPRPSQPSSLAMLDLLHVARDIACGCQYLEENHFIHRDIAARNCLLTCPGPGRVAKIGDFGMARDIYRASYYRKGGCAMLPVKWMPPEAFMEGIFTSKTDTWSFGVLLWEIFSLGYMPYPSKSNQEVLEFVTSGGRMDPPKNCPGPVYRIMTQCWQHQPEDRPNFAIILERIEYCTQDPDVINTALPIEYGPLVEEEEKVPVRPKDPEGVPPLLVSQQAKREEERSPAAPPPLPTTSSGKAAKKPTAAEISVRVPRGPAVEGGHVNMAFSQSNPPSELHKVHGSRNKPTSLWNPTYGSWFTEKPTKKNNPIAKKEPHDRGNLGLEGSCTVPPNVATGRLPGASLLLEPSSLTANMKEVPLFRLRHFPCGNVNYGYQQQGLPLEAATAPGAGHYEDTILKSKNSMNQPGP", "settings": "BaF3, dose 500.0 nmol/L, time 3-5 weeks"}, "[25]": {"tested_on": "EML4-ALK (Homo sapiens), Q9UM73+Q9HC35 [L1152P]", "settings": "BaF3, dose 500.0 nmol/L, time 3-5 weeks"}},
  "note": "Active and inactive are the calls of the source. No cut-off for these calls is given here.",
  "data": [
    {"smiles": "COc1cc(N2CCC(N3CCN(C)CC3)CC2)ccc1Nc1ncc(Cl)c(Nc2ccccc2P(C)(C)=O)n1", "note": "[BRIGATINIB]", "values": [
      {"measurement": "inhibition", "setting": "[1]", "value": "< 90", "unit": "%"},
      {"measurement": "IC50", "setting": "Focal adhesion kinase 1", "value": 3.9, "unit": "nM"},
      {"measurement": "IC50", "setting": "[2]", "value": 19, "unit": "nM"},
      {"measurement": "IC50", "setting": "[3]", "value": 22, "unit": "nM"},
      {"measurement": "IC50", "setting": "[4]", "value": 358, "unit": "nM"},
      {"measurement": "IC50", "setting": "[5]", "value": "> 1000", "unit": "nM"},
      {"measurement": "inhibition", "setting": "[6]", "value": "< 90", "unit": "%"},
      {"measurement": "inhibition", "setting": "[7]", "value": "< 90", "unit": "%"},
      {"measurement": "inhibition", "setting": "[8]", "value": "< 90", "unit": "%"},
      {"measurement": "inhibition", "setting": "[9]", "value": "< 90", "unit": "%"},
      {"measurement": "inhibition", "setting": "[10]", "value": "< 90", "unit": "%"},
      {"measurement": "inhibition", "setting": "[11]", "value": "< 90", "unit": "%"},
      {"measurement": "inhibition", "setting": "[12]", "value": "< 90", "unit": "%"},
      {"measurement": "inhibition", "setting": "[13]", "value": "< 90", "unit": "%"},
      {"measurement": "inhibition", "setting": "[14]", "value": "< 90", "unit": "%"},
      {"measurement": "inhibition", "setting": "[15]", "value": "< 90", "unit": "%"},
      {"measurement": "inhibition", "setting": "[16]", "value": "< 90", "unit": "%"},
      {"measurement": "inhibition", "setting": "[17]", "value": "< 90", "unit": "%"},
      {"measurement": "inhibition", "setting": "[18]", "value": "< 90", "unit": "%"},
      {"measurement": "inhibition", "setting": "[19]", "value": "< 90", "unit": "%"},
      {"measurement": "inhibition", "setting": "[20]", "value": "< 90", "unit": "%"},
      {"measurement": "MSD", "setting": "NCI-H2228", "value": 62, "unit": "days"},
      {"measurement": "GI50", "setting": "U-937", "value": 2390, "unit": "nM"},
      {"measurement": "IC90", "setting": "[21]", "value": 38, "unit": "nM"},
      {"measurement": "IC90", "setting": "[22]", "value": 160, "unit": "nM"},
      {"measurement": "IC90", "setting": "[23]", "value": 118, "unit": "nM"},
      {"measurement": "inhibition", "setting": "[24]", "value": "Active"},
      {"measurement": "inhibition", "setting": "[25]", "value": "Active"}
    ]}
  ]
}
